Experimental data taken from ChEMBL document CHEMBL1151716 (J Med Chem, 2008).
pIC50: −log10 of the molar value. ≈ marks a conversion by molar mass, not a printed value. Where “and” joins values, the source holds several entries; their conditions need not be identical. Equal entries are not always repeated. Values belong to the molecule of their own block, whether it stands above or below them.

Columns and labels:
[1] = target: 3',5'-cyclic-AMP phosphodiesterase 4D (Homo sapiens, UniProt Q08499)
Description: Inhibition of full length human PDE4D2 expressed in Escherichia coli BL21 by liquid scintillation counting

[2] = target: High affinity cGMP-specific 3',5'-cyclic phosphodiesterase 9A (Homo sapiens, UniProt O76083); assay: Inhibition of human cloned PDE9A2 expressed in Escherichia coli BL21 by liquid scintillation counting
[3] = target: High affinity 3',5'-cyclic-AMP phosphodiesterase 7A (Homo sapiens, UniProt Q13946); assay: Inhibition of human cloned PDE7A1 catalytic domain expressed in Escherichia coli BL21 by liquid scintillation counting
[4] = target: cGMP-specific 3',5'-cyclic phosphodiesterase (Homo sapiens, UniProt O76074); assay: Inhibition of human cloned PDE5A1 expressed in Escherichia coli BL21 by liquid scintillation counting
[5] = target: cGMP-dependent 3',5'-cyclic phosphodiesterase (Homo sapiens, UniProt O00408); assay: Inhibition of human cloned PDE2A3 expressed in Escherichia coli BL21 by liquid scintillation counting
PBMC = assay: Inhibition of LPS-induced TNFalpha production in human PBMC; assay type: functional, cell-based
[6] = Solubility in heavy water; assay type: physicochemical

Sequence of High affinity cGMP-specific 3',5'-cyclic phosphodiesterase 9A (O76083 whole entry, the tested form may be a part): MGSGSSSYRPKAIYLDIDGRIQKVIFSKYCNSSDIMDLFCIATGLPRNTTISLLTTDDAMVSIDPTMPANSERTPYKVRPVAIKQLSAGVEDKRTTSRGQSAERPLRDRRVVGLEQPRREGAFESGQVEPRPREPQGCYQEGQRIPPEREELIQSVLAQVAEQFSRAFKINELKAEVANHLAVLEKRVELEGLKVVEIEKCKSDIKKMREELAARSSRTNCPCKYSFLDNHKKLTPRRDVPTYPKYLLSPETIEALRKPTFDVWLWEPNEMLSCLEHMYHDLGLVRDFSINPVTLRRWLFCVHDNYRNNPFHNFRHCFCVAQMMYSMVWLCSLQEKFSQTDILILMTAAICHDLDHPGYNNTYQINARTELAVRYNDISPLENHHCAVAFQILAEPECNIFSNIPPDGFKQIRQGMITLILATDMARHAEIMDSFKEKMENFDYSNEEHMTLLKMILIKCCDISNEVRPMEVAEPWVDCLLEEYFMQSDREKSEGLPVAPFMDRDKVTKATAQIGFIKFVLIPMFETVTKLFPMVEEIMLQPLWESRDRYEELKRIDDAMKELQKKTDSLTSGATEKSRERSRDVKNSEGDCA
Sequence of High affinity 3',5'-cyclic-AMP phosphodiesterase 7A (Q13946 whole entry, the tested form may be a part): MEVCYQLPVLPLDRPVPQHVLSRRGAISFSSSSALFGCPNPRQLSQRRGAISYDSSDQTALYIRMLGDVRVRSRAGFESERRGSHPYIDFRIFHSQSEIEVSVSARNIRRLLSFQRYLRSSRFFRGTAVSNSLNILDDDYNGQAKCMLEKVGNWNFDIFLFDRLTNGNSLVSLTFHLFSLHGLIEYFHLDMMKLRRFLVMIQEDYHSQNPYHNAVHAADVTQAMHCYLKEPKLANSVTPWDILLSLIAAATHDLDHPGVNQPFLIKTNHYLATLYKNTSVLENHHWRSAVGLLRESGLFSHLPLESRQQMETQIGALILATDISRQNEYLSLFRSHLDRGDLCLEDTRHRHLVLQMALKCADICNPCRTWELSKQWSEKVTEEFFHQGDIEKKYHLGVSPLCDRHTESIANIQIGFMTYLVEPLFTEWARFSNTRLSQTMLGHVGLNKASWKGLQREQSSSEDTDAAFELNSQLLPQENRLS
Sequence of cGMP-dependent 3',5'-cyclic phosphodiesterase (O00408 whole entry): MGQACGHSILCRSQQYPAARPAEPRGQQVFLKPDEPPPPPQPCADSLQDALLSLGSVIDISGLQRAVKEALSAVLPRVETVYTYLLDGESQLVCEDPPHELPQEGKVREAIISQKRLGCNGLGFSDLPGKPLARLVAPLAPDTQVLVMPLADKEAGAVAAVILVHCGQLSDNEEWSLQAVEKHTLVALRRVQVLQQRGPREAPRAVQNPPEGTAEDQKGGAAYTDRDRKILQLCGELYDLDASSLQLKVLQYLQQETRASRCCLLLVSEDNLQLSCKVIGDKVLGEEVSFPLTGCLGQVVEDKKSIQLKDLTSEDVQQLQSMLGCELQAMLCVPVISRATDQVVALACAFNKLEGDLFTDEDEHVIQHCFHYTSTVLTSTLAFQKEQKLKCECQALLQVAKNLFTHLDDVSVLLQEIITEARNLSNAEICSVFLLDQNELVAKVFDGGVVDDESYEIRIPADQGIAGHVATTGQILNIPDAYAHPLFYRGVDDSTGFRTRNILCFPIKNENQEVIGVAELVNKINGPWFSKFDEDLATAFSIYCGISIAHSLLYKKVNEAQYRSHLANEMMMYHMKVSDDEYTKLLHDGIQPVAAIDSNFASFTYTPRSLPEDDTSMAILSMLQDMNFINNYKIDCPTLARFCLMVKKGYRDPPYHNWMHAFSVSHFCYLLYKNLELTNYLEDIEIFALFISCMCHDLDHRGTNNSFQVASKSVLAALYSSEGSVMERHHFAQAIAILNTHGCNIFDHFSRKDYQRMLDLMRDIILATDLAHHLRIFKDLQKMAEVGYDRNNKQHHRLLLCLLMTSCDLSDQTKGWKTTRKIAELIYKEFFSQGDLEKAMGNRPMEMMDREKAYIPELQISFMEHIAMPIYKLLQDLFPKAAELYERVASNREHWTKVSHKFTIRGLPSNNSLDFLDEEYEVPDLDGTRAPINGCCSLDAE
Sequence of 3',5'-cyclic-AMP phosphodiesterase 4D (Q08499 whole entry): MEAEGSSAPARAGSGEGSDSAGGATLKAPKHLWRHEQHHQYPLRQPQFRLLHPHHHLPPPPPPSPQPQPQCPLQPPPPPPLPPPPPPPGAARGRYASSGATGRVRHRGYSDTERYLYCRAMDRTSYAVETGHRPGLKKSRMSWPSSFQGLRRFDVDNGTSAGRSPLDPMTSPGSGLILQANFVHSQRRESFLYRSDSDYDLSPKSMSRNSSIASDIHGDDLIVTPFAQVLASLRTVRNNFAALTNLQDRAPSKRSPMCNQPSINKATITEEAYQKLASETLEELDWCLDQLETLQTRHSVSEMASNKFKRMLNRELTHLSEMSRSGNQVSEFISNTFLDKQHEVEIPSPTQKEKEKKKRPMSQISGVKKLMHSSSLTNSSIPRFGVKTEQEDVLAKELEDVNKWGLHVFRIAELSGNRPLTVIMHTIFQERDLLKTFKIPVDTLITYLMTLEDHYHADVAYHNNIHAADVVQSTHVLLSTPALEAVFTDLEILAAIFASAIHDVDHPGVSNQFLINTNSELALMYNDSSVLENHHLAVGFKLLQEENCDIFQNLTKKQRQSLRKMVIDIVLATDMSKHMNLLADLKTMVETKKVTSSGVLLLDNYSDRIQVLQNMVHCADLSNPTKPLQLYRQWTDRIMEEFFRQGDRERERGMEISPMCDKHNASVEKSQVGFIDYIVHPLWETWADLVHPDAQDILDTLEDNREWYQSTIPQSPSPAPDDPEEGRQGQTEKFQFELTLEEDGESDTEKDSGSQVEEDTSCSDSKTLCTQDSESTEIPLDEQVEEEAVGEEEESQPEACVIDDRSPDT

SMILES: COc1ccc(C(=O)CCc2ccccc2)cc1OC1CCOC1 (stereo not drawn)
pIC50 [1]: 5.59

SMILES: O=C(CCC1CCCCC1)c1ccc(OC(F)F)c(OC2CCOC2)c1 (stereo not drawn)
pIC50 [1]: 5.96

SMILES: CCCC(=O)c1ccc(OC)c(OC2CCOCC2)c1
pIC50 [2]: < 4.30 | pIC50 [3]: < 4.30 | pIC50 [4]: < 4.30 | pIC50 [1]: 5.46 | pIC50 [5]: < 4.30

SMILES: CCCCC(=O)c1ccc(OC(F)F)c(OC2CCN(C(=O)OC(C)(C)C)CC2)c1
pIC50 [1]: 5.66

pIC50 [1]: 6.40
SMILES: COc1ccc(C(=O)Nc2c(F)cccc2F)cc1OC1CCCCC1

SMILES: CCCC(=O)c1ccc(OC2CCN(C(=O)OC(C)(C)C)CC2)c(OC)c1
pIC50 [1]: 4.54

SMILES: COc1ccc(C(=O)CCC(C)C)cc1OC1CCOC1 (stereo not drawn)
pIC50 [1]: 6.42

SMILES: CCCCC(O)c1ccc(OC)c(OC2CCOC2)c1 (stereo not drawn)
pIC50 [1]: 5.00

pIC50 [1]: 6.19
SMILES: COc1ccc(C(=O)Nc2ccccc2Cl)cc1OC

SMILES: O=C(CCCc1ccccc1)c1ccc(OC(F)F)c(OC2CCOC2)c1 (stereo not drawn)
pIC50 [1]: 6.20

SMILES: CCCC(=O)c1ccc(OC(F)F)c(OC2CCOCC2)c1
pIC50 [1]: 6.46

SMILES: CCCCC(=O)c1ccc(OC2CCOC2)c(OC)c1 (stereo not drawn)
pIC50 [1]: 4.00

pIC50 [1]: 5.80
SMILES: CCCOc1cc(C(=O)Nc2c(F)cccc2F)ccc1OC

SMILES: O=C(CCc1ccccc1)c1ccc(OC(F)F)c(OC2CCOC2)c1 (stereo not drawn)
pIC50 [1]: 6.74

SMILES: CCCC(O)c1ccc(OC2CCOC2)c(OC)c1 (stereo not drawn)
pIC50 [1]: < 4.00 and 3.28

SMILES: CCCCC(=O)c1ccc(OC2CCOCC2)c(OC)c1
pIC50 [1]: 4.15

SMILES: CC(C)CC(=O)c1ccc(OC(F)F)c(OC2CCCC2)c1
pIC50 (PBMC): 7.00 | pIC50 [1]: 7.55

SMILES: O=C(CCCc1ccccc1)c1ccc(OC(F)F)c(OC(F)F)c1
pIC50 [1]: 4.36

pIC50 [1]: 7.15
SMILES: COc1ccc(C(=O)Nc2c(F)cccc2F)cc1OC1CCCC1

SMILES: COc1ccc(C(=O)CCC2CCCCC2)cc1OC1CCOC1 (stereo not drawn)
pIC50 [1]: 5.72

SMILES: COc1cc(C(CC(C)=O)c2cnc3ccccc3c2)ccc1Oc1ccccn1 (stereo not drawn)
pIC50 [2]: < 4.30 | pIC50 [3]: < 4.30 | pIC50 [4]: < 4.30 | pIC50 [1]: 5.22 | pIC50 [5]: < 4.30

SMILES: CCCCC(=O)c1ccc(OC2CCN(C(=O)OC(C)(C)C)CC2)c(OC)c1
pIC50 [1]: 4.03

SMILES: CCCCC(=O)c1ccc(OC)c(OC2CCNCC2)c1
pIC50 [1]: 3.99 | solubility [6]: 800 µM (≈ 233 µg/mL)

SMILES: O=C(CCc1ccccc1)c1ccc(OC(F)F)c(OC(F)F)c1
pIC50 [1]: 6.09

SMILES: CC(C)(C)C(=O)c1ccc(OC(F)F)c(OC2CCOC2)c1 (stereo not drawn)
pIC50 [1]: 6.39

SMILES: O=C(CC1CCCCC1)c1ccc(OC(F)F)c(OC(F)F)c1
pIC50 [1]: 5.28

pIC50 [1]: 5.51
SMILES: COc1ccc(C(=O)Nc2ccccc2C(F)(F)F)cc1OC1CCCC1

SMILES: CCCC(=O)c1ccc(OC2CCOCC2)c(OC)c1
pIC50 [1]: 4.22

pIC50 [1]: 4.43
SMILES: COc1ccc(C(=O)Nc2c(F)cccc2F)cc1O

SMILES: COc1ccc(C(=O)CCCc2ccccc2)cc1OC1CCOC1 (stereo not drawn)
pIC50 [1]: 5.64

SMILES: CCCCC(=O)c1ccc(OC)c(OC2CCOC2)c1 (stereo not drawn)
pIC50 [1]: 6.66

pIC50 [1]: 7.55
SMILES: COc1ccc(C(=O)Nc2c(Cl)cccc2Cl)cc1OC1CCCC1

SMILES: CCCCC(c1cccnc1)c1ccc(Oc2ccccn2)c(OC)c1 (stereo not drawn)
pIC50 [1]: 5.00

SMILES: CCCC(O)c1ccc(OC2CCOCC2)c(OC)c1 (stereo not drawn)
pIC50 [1]: < 4.00 and 2.82

SMILES: CC(C)CC(=O)c1ccc(OC(F)F)c(OC2CCOC2)c1 (stereo not drawn)
pIC50 (PBMC): 7.40 | pIC50 [2]: < 4.30 | pIC50 [3]: < 4.30 | pIC50 [4]: < 4.30 | pIC50 [5]: < 4.30

SMILES: CCCC(=O)c1ccc(OC)c(OC2CCOC2)c1 (stereo not drawn)
pIC50 [1]: 6.37

SMILES: COc1ccc(C(=O)CC(C)C)cc1OC1CCOC1 (stereo not drawn)
pIC50 [1]: 6.72 and 6.75

SMILES: CCCCC(=O)c1ccc(OC)c(OC2CCOCC2)c1
pIC50 [1]: 6.14

SMILES: COc1cc(C(CC(C)=O)c2cccnc2)ccc1O (stereo not drawn)
pIC50 [1]: 4.10

SMILES: CCCC(=O)c1ccc(OC(F)F)c(Oc2ccccn2)c1
pIC50 [1]: 4.40

SMILES: CCCC(O)(c1ccc(Oc2ccccn2)c(OC)c1)c1cnc2ccccc2c1 (stereo not drawn)
pIC50 [2]: < 4.30 | pIC50 [3]: 4.77 | pIC50 [4]: 4.40 | pIC50 [1]: 5.22 | pIC50 [5]: < 4.30

SMILES: O=C(CC1CCCCC1)c1ccc(OC(F)F)c(OC2CCOC2)c1 (stereo not drawn)
pIC50 [1]: 6.18

SMILES: COc1ccc(C(=O)CC2CCCCC2)cc1OC1CCOC1 (stereo not drawn)
pIC50 [1]: 5.59

SMILES: CCCCC(=O)c1ccc(OC(F)F)c(OC2CCOC2)c1 (stereo not drawn)
pIC50 [1]: 7.21

pIC50 [1]: 6.70
SMILES: COc1ccc(C(=S)Nc2c(Cl)cccc2Cl)cc1OC1CCCC1

SMILES: CCCCC(O)c1ccc(OC2CCOC2)c(OC)c1 (stereo not drawn)
pIC50 [1]: < 4.00 and 3.40

pIC50 [1]: 4.97
SMILES: COc1ccc(C(=O)Nc2ccccc2F)cc1OC1CCCC1

SMILES: COc1ccc(C(=O)c2cnc3ccccc3c2)cc1OC1CCOCC1
pIC50 [1]: 4.35

SMILES: CCCCC(O)c1ccc(OC2CCOCC2)c(OC)c1 (stereo not drawn)
pIC50 [1]: < 4.00 and 3.27

SMILES: CCCC(=O)c1ccc(OC2CCOC2)c(OC)c1 (stereo not drawn)
pIC50 [1]: 4.62
